What was measured:
Test in all cases: KINOMEscan competition binding
Settings in all cases: compound 10.0 µM; call rule not given here
MAPK12 (human) = MAPK12 (human) (UniProt P53778)
MAP4K5 (human) = MAP4K5 (human) (UniProt Q9Y4K4)
STK33 (human) = STK33 (human) (UniProt Q9BYT3)
EPHB1 (human) = EPHB1 (human) (UniProt P54762)
CDK2 (human) = CDK2 (human) (UniProt P24941)
ACVRL1 (human) = ACVRL1 (human) (UniProt P37023)
ABL1 (human) = ABL1 (human) (UniProt P00519)
STK17B (human) = STK17B (human) (UniProt O94768)
STK17A (human) = STK17A (human) (UniProt Q9UEE5)
ACVR2A (human) = ACVR2A (human) (UniProt P27037)
MKNK2 (human) = MKNK2 (human) (UniProt Q9HBH9)
CAMKK1 (human) = CAMKK1 (human) (UniProt Q8N5S9)
ACVR2B (human) = ACVR2B (human) (UniProt Q13705)
DAPK2 (human) = DAPK2 (human) (UniProt Q9UIK4)
BTK (human) = BTK (human) (UniProt Q06187)
TTK (human) = TTK (human) (UniProt P33981)
YES1 (human) = YES1 (human) (UniProt P07947)
ALK (human) = ALK (human) (UniProt Q9UM73)
AURKC (human) = AURKC (human) (UniProt Q9UQB9)
MERTK (human) = MERTK (human) (UniProt Q12866)
EPHA5 (human) = EPHA5 (human) (UniProt P54756)
STK4 (human) = STK4 (human) (UniProt Q13043)
PRKAA2 (human) = PRKAA2 (human) (UniProt P54646)
FGR (human) = FGR (human) (UniProt P09769)
NTRK2 (human) = NTRK2 (human) (UniProt Q16620)
SYK (human) = SYK (human) (UniProt P43405)
LYN (human) = LYN (human) (UniProt P07948)
KDR (human) = KDR (human) (UniProt P35968)
SLK (human) = SLK (human) (UniProt Q9H2G2)
LCK (human) = LCK (human) (UniProt P06239)
STK16 (human) = STK16 (human) (UniProt O75716)
AURKA (human) = AURKA (human) (UniProt O14965)
[1] = biological target: JAK2 JH1 catalytic (human) (UniProt O60674)
MAP3K11 (human) = MAP3K11 (human) (UniProt Q16584)

Sequence of YES1 (human) (P07947 whole entry, looked up): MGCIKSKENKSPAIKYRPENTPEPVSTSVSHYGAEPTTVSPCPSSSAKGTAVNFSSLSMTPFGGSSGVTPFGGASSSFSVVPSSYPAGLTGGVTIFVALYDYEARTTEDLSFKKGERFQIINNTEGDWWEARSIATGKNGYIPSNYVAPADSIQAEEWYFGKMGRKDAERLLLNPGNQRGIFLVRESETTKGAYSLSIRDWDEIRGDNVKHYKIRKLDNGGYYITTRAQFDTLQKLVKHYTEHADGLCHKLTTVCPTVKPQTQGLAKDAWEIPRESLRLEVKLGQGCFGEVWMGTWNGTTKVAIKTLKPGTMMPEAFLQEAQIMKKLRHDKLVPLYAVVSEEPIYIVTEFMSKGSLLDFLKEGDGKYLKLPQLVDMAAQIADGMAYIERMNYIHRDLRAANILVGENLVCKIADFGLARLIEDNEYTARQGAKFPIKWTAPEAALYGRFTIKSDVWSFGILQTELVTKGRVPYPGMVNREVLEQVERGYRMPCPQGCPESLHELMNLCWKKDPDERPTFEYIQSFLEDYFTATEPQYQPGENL
Sequence of FGR (human) (P09769 whole entry, looked up): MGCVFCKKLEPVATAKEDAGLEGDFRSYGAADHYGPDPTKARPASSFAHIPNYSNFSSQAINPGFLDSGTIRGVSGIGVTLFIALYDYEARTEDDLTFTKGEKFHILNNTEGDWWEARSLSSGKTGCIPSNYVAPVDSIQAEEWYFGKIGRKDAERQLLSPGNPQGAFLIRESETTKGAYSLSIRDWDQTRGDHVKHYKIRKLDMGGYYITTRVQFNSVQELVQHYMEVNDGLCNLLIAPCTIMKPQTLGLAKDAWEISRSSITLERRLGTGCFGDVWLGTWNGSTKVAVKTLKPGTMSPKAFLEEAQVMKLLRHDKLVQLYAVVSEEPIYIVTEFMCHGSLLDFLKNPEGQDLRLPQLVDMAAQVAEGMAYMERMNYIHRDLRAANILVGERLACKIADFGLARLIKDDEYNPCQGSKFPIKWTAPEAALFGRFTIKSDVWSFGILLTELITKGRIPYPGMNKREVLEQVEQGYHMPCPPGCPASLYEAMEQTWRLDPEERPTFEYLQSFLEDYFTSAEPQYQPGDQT
Sequence of ACVR2B (human) (Q13705 whole entry, looked up): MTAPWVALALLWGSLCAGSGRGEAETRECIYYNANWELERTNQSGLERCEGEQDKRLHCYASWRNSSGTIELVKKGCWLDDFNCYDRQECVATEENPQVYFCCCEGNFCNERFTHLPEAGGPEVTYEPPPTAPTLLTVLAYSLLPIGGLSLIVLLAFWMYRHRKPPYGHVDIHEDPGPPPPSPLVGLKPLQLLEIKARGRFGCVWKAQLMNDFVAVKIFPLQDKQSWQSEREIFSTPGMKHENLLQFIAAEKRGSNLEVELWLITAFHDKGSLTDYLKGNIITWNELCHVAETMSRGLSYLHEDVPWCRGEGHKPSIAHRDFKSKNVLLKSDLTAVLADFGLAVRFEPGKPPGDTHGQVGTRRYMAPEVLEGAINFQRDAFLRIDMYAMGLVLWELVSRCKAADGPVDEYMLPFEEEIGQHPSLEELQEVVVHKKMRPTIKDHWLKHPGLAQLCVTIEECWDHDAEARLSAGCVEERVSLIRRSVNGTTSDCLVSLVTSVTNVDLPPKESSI
Sequence of ACVRL1 (human) (P37023 whole entry, looked up): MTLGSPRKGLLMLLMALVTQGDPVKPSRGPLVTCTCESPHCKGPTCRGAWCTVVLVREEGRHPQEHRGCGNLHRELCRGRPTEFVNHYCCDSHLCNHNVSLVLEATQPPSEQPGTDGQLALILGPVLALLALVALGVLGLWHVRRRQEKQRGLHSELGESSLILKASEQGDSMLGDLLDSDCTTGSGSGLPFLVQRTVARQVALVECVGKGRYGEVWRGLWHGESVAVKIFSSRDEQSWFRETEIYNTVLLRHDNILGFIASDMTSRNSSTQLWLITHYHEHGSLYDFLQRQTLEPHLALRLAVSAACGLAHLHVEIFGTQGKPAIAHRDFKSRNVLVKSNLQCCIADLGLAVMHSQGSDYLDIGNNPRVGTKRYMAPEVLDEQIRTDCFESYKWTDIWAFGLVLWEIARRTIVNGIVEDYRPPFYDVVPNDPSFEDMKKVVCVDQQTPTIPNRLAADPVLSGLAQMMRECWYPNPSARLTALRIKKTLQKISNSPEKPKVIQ
Sequence of EPHB1 (human) (P54762 whole entry, looked up): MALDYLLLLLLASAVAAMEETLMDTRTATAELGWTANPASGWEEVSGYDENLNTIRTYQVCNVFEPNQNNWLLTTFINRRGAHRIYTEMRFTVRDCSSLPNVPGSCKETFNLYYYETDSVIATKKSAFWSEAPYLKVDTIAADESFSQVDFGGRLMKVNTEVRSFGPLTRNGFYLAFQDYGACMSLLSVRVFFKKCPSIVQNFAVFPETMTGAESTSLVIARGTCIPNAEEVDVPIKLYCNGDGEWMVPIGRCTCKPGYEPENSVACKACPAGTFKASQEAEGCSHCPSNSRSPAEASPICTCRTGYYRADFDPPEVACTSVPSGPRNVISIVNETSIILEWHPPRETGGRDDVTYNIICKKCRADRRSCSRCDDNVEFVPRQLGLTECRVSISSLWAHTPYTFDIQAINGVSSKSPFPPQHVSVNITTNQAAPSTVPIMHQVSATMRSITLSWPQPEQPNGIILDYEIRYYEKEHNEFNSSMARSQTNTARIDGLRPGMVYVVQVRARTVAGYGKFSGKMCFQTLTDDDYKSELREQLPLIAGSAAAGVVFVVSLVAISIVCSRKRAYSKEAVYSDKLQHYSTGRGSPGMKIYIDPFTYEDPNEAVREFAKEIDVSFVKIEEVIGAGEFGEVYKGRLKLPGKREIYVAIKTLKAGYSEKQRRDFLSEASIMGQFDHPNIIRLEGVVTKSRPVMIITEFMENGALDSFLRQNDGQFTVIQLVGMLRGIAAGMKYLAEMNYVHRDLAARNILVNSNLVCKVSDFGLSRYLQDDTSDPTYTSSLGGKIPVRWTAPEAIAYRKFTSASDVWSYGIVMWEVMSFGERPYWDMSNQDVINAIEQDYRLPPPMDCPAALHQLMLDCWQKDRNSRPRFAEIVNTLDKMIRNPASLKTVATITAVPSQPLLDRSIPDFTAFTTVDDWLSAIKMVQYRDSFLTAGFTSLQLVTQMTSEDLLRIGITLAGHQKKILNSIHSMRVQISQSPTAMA
Sequence of ABL1 (human) (P00519 whole entry, looked up): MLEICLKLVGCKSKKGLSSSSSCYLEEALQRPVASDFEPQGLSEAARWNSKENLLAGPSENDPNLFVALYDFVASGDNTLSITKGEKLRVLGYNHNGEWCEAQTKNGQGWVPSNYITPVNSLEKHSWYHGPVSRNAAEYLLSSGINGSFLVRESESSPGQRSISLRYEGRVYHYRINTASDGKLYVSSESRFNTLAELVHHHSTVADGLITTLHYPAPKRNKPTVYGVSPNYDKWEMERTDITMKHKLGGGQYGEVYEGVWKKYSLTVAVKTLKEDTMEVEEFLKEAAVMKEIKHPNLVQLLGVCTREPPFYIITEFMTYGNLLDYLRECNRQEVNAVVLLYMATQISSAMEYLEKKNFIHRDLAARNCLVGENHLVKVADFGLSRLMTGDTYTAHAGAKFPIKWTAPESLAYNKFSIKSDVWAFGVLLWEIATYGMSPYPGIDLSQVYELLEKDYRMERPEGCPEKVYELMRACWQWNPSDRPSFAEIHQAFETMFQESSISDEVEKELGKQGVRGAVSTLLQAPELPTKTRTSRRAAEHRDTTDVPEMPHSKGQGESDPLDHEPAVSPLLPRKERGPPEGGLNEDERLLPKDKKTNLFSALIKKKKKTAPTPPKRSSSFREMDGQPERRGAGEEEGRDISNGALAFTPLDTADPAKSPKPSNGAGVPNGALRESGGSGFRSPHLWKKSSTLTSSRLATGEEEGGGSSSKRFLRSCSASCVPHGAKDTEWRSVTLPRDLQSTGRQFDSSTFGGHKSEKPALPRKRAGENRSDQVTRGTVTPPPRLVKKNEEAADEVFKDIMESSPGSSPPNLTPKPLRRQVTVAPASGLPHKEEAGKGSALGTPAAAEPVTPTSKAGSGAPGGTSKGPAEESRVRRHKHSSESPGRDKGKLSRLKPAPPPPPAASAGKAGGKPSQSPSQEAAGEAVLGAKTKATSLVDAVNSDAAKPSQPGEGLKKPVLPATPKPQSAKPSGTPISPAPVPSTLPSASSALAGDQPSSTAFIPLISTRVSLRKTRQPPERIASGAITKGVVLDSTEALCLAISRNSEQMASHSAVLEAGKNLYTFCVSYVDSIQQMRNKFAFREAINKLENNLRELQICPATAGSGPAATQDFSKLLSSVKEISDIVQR
Sequence of MAPK12 (human) (P53778 whole entry, looked up): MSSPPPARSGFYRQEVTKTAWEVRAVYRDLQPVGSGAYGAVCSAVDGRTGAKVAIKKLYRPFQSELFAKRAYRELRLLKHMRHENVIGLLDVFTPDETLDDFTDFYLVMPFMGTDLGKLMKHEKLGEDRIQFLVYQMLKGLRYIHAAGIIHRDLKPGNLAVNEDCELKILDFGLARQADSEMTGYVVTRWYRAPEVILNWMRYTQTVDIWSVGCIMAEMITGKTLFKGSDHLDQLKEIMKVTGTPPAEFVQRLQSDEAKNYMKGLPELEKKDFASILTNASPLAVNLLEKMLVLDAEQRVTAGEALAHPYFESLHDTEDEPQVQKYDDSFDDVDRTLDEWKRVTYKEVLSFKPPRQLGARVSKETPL
Sequence of MKNK2 (human) (Q9HBH9 whole entry, looked up): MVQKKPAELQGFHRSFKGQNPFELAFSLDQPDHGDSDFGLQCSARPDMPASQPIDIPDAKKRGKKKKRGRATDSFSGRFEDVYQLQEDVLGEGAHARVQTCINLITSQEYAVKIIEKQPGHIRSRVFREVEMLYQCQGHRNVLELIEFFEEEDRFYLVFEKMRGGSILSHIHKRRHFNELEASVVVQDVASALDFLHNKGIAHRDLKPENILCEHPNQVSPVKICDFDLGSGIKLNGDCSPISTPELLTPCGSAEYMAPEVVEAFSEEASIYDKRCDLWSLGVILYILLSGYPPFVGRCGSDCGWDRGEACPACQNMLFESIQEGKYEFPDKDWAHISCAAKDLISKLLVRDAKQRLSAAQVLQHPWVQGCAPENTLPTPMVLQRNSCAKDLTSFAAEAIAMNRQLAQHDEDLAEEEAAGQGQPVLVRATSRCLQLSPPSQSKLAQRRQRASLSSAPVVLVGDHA

Structure (SMILES) | kinase still bound, per cent of control (MAPK12 (human)) | kinase still bound, per cent of control (MAP4K5 (human)) | kinase still bound, per cent of control (STK33 (human)) | kinase still bound, per cent of control (EPHB1 (human)) | kinase still bound, per cent of control (CDK2 (human)) | kinase still bound, per cent of control (ACVRL1 (human)) | kinase still bound, per cent of control (ABL1 (human)) | kinase still bound, per cent of control (STK17B (human)) | kinase still bound, per cent of control (STK17A (human)) | kinase still bound, per cent of control (ACVR2A (human)) | kinase still bound, per cent of control (MKNK2 (human)) | kinase still bound, per cent of control (CAMKK1 (human)) | kinase still bound, per cent of control (ACVR2B (human)) | kinase still bound, per cent of control (DAPK2 (human)) | kinase still bound, per cent of control (BTK (human)) | kinase still bound, per cent of control (YES1 (human)) | kinase still bound, per cent of control (ALK (human)) | kinase still bound, per cent of control (EPHA5 (human)) | kinase still bound, per cent of control (PRKAA2 (human)) | kinase still bound, per cent of control (FGR (human)) | further results
NC(=O)Nc1sc(-c2ccc(F)cc2)cc1C(N)=O | no effect (inactive) | no effect (inactive) | no effect (inactive) | 0% | no effect (inactive) | no effect (inactive) | no effect (inactive) | – | – | – | – | – | – | – | – | – | – | – | – | – | –
Cc1cc(Nc2cc(N3CCN(C)CC3)nc(Sc3ccc(NC(=O)C4CC4)cc3)n2)[nH]n1 | no effect (inactive) | – | no effect (inactive) | – | no effect (inactive) | no effect (inactive) | – | no effect (inactive) | no effect (inactive) | no effect (inactive) | no effect (inactive) | no effect (inactive) | no effect (inactive) | no effect (inactive) | no effect (inactive) | – | – | – | – | – | kinase still bound, per cent of control (TTK (human)): no effect (inactive)
Cc1ccc(O)cc1Nc1ccnc(Nc2cccc(C(N)=O)c2)n1 | no effect (inactive) | – | – | 0% | no effect (inactive) | – | – | no effect (inactive) | no effect (inactive) | – | – | no effect (inactive) | 0% | no effect (inactive) | – | 0% | no effect (inactive) | 0% | no effect (inactive) | 0% | kinase still bound, per cent of control (AURKC (human)): no effect (inactive); kinase still bound, per cent of control (MERTK (human)): no effect (inactive); kinase still bound, per cent of control (STK4 (human)): no effect (inactive); kinase still bound, per cent of control (NTRK2 (human)): no effect (inactive)
O=C1Nc2ccccc2/C1=C/c1ccc[nH]1 | no effect (inactive) | – | – | – | – | no effect (inactive) | no effect (inactive) | – | – | no effect (inactive) | no effect (inactive) | – | no effect (inactive) | – | – | no effect (inactive) | – | no effect (inactive) | – | no effect (inactive) | kinase still bound, per cent of control (SYK (human)): no effect (inactive); kinase still bound, per cent of control (LYN (human)): no effect (inactive); kinase still bound, per cent of control (KDR (human)): 0%; kinase still bound, per cent of control (SLK (human)): no effect (inactive); kinase still bound, per cent of control (LCK (human)): no effect (inactive)
N#Cc1ccc(-c2cnc3[nH]cc(NC(=O)c4cccnc4)c3c2)cc1 | no effect (inactive) | no effect (inactive) | – | no effect (inactive) | – | – | no effect (inactive) | – | – | no effect (inactive) | – | – | no effect (inactive) | – | no effect (inactive) | no effect (inactive) | no effect (inactive) | no effect (inactive) | no effect (inactive) | no effect (inactive) | kinase still bound, per cent of control (SYK (human)): no effect (inactive); kinase still bound, per cent of control (STK16 (human)): 0%; kinase still bound, per cent of control (LYN (human)): no effect (inactive); kinase still bound, per cent of control (KDR (human)): no effect (inactive); kinase still bound, per cent of control (AURKA (human)): no effect (inactive); kinase still bound, per cent of control [1]: no effect (inactive); kinase still bound, per cent of control (LCK (human)): no effect (inactive); kinase still bound, per cent of control (MAP3K11 (human)): no effect (inactive); kinase still bound, per cent of control (NTRK2 (human)): no effect (inactive)

Reference: the kinase profiling compilation of Christmann-Franck et al. (2016)
